This test concerns the target T1, human subtype 5 somatostatin receptor (Homo sapiens, UniProt P35346).
T1 construct: host or cells: CHO cells, stably transfected; membranes prepared from them
Briefly: SSTR5 radioligand binding assay (125I-labeled 11-Tyr somatostatin-14 tracer, membranes of transfected CHO cells). The following applies: CHO cell membranes, Ki calculated from IC50 by Cheng-Prussoff equation. On the procedure: A CHO cell line stably transfected with a plasmid encoding the human subtype 5 somatostatin receptor (GenBank accession number D16827) was obtained from Euroscreen. Cells were cultured and used for binding and functional assays.
Membranes of these cells were prepared by sonication in the presence of protease inhibitors and subsequent fractionating centrifugation. The protein concentration in the membrane preparation was determined using a commercial kit (BCA kit, Pierce, USA). Membranes were stored at −80° C. until use. After thawing, membranes were diluted in assay buffer (50 mM Tris-HCl at pH 7.4, 5 mM MgCl2 and 0.20% BSA) and subjected to dounce homogenization.
For binding studies, 0.1 mL membrane suspension, corresponding to app. 6×10^−15 mol receptor, was incubated for 1 h at room temperature with 0.05 nM ^125I-labeled tracer (11-Tyr somatostatin-14, Perkin-Elmer) and either test compounds in varying concentrations or, for the determination of non-specific binding, 0.001 mM non-labeled somatostatin-14. The incubation was stopped by filtration through GF/B glassfiber filters and washing with ice-cold wash buffer (50 mM Tris-HCl at pH 7.4). The bound radioactivity was measured after application of a scintillation cocktail (Microscint 40) and expressed as disintegrations per minute (dpm).
The receptor concentration was determined in a prior saturation experiment where a fixed, arbitrary amount of membranes was incubated with a concentration range of radio-labeled tracer. This allows estimating the total number of specific binding sites per amount of protein (i.e., Bmax), typically between 1 and 5 pmol/mg.
The concentration of the test compound required to result in half maximal inhibition of binding of the radio-labeled tracer (IC50) was estimated from a concentration-versus-dpm graph. The binding affinity (Ki) was calculated from the IC50 by applying the Cheng-Prussoff equation for single binding sites.

T1 sequence (P35346 whole entry): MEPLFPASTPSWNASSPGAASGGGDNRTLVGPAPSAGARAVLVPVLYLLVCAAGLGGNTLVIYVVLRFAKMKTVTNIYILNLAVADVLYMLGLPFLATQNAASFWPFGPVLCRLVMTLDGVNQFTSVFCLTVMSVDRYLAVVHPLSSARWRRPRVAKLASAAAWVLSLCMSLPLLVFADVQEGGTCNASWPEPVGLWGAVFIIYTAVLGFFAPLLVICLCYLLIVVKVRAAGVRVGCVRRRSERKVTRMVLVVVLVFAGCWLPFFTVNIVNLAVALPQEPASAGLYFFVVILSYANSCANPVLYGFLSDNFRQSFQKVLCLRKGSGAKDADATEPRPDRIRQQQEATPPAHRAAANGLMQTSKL

In the case of `CCOc1cc(CN2CCC(Nc3nc(N)c4cc(C)ccc4n3)CC2)ccc1OC` [Example 8, N^2-[1-(3-Ethoxy-4-methoxy-benzyl)-piperidin-4-yl]-6-methyl-quinazoline-2,4-diamine], the inhibitory constant (Ki) is 490 nM. `CCOc1cc(CN2CCC(Nc3ncc(C#N)c(N)n3)CC2)cc(OCOC)c1I` [Example 137, 4-amino-2-[1-(3-ethoxy-4-iodo-5-methoxymethoxy-benzyl)-piperidin-4-ylamino]-pyrimidine-5-carbonitrile]: the Ki was 6.4 nM.

Consider `CCOc1cc(CN2CCC(Nc3ncc(-c4ccc(OC)cc4)cn3)CC2)ccc1Cl` [Example 161, [1-(4-chloro-3-ethoxy-benzyl)-piperidin-4-yl]-[5-(4-methoxy-phenyl)-pyrimidin-2-yl]-amine], for which the Ki is 31 nM.

By Ki is commonly meant the dissociation constant of the complex between target and ligand, obtained from inhibition or displacement.
